Test results as given in article PMC11249953, “c-KIT inhibitors reduce pathology and improve behavior in the Tg(SwDI) model of Alzheimer’s disease” (Life Science Alliance, 2024).
Where “and” joins values, the source holds several entries; their conditions need not be identical. Equal values may be shown once.

How the values were obtained:
Solubility in DMSO = format: physicochemical
mice = assay: Elevated plus maze, source data sheets EPM (mouse line not given); format: in vivo
Procedure: The elevated plus maze was performed using a standard set up, with two enclosed arms and two open arms. Mice were placed at the intersection of the open and closed arms and allowed to freely explore for 5 min, two times. Time spent in the open and closed arms and number of entries into the open and closed arms were recorded.

p-ABL1 = biological target: T1, p-ABL1 (Homo sapiens, UniProt P00519); assay: KINOMEscan competition binding, p-ABL1; conditions: 10 µM compound
T1 construct: DNA label for qPCR read-out (T7 phage fusion or DNA tag); purchased Eurofins DiscoverX Corporation; host or cells: T7 phage in E. coli (BL21-derived) or HEK-293
Procedure: (§1) The KINOMEscan screening platform (Eurofins DiscoverX Corporation) was performed using active site-directed competition binding assay to quantitatively measure interactions between BK40143 and BK40197 and more than 450 human kinases and disease relevant mutant variants. […] Screening “hits” are identified by measuring the amount of kinase captured in test (BK40143 and BK40197) versus control samples by using a quantitative and ultra-sensitive qRT-PCR method that detects the associated DNA label. BK40143 and BK40197 were screened at 10 µM concentration, and results for primary screen binding interactions were reported as “% Ctrl” (POC), where lower numbers indicate stronger hits and calculated as follows: [test compound signal−positive control signal/negative control signal−positive control signal]×100
(§2) negative control = DMSO (100% Ctrl)
(§3) positive control = control compound (0% Ctrl)
(§4) Based on screening data from of profiled compounds, a proportional relationship between primary screening results and corresponding compound/target affinities can be described as binding constants (Kd values) for the indicated ranges of POC values with tighter binding (higher affinity) interactions associated with lower POC values and weaker binding (lower affinity) associated with higher POC values. Briefly, kinase-tagged T7 phage strains were grown in parallel in 24-well blocks in an E. coli host derived from the BL21 strain. E. coli were grown to log-phase and infected with T7 phage from a frozen stock (multiplicity of infection = 0.4) and incubated with shaking at 32°C until lysis (90–150 min). The lysates were centrifuged (6,000g) and filtered (0.2 μm) to remove cell debris. The remaining kinases were produced in HEK-293 cells and subsequently tagged with DNA for qRT-PCR detection. Streptavidin-coated magnetic beads were treated with biotinylated small molecule ligands for 30 min at RT to generate affinity resins for kinase assays. The liganded beads were blocked with excess biotin and washed with blocking buffer (1% BSA, 0.05% Tween 20, 1 mM DTT; SeaBlock [Pierce]) to remove unbound ligand and to reduce non-specific phage binding. Binding reactions were assembled by combining kinases, liganded affinity beads, and test compounds in 1x binding buffer (20% 0.17x PBS, 0.05% Tween 20, 6 mM DTT; SeaBlock). Test compounds were prepared as 100x stocks in 100% DMSO and directly diluted into the assay. All reactions were performed in polypropylene 384-well plates in a final volume of 0.02 ml. The assay plates were incubated at RT with shaking for 1 h and the affinity beads were washed with wash buffer (1x PBS, 0.05% Tween 20). […] The kinase concentration in the eluates was measured by qRT-PCR.

KIT = biological target: T2, KIT (Homo sapiens, UniProt P10721); assay: KINOMEscan competition binding, KIT; conditions: 10 µM compound
T2 construct: DNA label for qPCR read-out (T7 phage fusion or DNA tag); purchased Eurofins DiscoverX Corporation; host or cells: T7 phage in E. coli (BL21-derived) or HEK-293
Procedure: as §1, §2, §3, §4

[1] = Totals (Trial 1 + Trial 2), individual animals, listed as 197
[2] = Trial 1, individual animals, listed as 197
[3] = Trial 2, individual animals, listed as 197
[4] = elevated plus maze, trial 1 + trial 2, one value per mouse, listed as 197
[5] = elevated plus maze, trial 1, one value per mouse, listed as 197
[6] = elevated plus maze, trial 2, one value per mouse, listed as 197

T2 sequence (P10721 26-976): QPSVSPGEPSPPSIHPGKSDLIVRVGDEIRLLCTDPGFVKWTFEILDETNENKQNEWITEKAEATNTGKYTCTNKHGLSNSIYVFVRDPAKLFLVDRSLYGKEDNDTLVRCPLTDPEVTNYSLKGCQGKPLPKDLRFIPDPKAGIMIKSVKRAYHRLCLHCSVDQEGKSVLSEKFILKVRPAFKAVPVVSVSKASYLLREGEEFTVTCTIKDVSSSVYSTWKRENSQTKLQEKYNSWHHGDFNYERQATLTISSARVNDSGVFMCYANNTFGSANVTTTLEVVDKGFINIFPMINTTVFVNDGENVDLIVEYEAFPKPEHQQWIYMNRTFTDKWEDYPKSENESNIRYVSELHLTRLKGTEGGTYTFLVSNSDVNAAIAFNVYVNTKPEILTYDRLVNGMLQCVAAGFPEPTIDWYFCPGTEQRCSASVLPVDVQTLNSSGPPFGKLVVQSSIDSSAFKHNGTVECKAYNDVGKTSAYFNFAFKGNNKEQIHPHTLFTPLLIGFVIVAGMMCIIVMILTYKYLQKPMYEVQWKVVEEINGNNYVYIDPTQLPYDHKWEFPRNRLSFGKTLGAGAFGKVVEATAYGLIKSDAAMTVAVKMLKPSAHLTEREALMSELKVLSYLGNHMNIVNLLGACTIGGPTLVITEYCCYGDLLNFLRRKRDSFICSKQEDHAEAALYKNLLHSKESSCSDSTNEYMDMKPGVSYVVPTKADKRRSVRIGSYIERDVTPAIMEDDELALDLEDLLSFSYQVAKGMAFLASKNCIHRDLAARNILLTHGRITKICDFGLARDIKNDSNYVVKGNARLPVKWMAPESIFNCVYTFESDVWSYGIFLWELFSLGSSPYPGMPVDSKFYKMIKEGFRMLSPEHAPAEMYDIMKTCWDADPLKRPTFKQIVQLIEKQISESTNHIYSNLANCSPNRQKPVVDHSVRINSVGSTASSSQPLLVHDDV
T1 sequence (P00519 whole entry, the tested form may be a part): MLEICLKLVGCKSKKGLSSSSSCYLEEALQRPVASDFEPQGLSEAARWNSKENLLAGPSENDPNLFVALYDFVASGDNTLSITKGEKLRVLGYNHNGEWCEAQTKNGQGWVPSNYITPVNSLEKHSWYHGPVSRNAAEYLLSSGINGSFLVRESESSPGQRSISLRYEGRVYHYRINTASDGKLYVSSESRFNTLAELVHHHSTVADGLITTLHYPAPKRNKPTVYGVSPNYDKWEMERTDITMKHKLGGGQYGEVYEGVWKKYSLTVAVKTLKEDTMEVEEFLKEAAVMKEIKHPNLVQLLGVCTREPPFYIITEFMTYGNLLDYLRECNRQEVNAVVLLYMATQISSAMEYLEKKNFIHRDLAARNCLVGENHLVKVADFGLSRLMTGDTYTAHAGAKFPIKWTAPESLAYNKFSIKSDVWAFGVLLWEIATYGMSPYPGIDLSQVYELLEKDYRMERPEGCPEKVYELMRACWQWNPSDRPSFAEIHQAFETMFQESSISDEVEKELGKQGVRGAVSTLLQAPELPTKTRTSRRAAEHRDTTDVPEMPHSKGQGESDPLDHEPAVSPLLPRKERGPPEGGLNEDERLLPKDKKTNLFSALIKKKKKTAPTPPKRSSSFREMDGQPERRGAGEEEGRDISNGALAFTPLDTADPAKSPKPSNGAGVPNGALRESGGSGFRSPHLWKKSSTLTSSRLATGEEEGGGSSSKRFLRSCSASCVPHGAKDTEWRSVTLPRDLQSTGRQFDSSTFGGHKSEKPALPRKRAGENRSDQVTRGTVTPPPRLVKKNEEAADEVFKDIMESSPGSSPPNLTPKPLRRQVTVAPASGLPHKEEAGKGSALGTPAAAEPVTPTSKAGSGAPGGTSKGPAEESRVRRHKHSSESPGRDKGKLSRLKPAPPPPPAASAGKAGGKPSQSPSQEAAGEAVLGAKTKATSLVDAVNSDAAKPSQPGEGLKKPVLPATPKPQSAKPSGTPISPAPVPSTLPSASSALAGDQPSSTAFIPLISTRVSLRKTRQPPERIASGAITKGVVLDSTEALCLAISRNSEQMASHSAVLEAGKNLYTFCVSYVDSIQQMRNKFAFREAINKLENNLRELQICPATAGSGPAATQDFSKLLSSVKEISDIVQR

With `Cc1cccc(-c2cc3nccc(N4CCOCC4)c3s2)c1` [BK40197] as the compound, how does the “solubility in DMSO” value (Solubility in DMSO) read?
Its value is “insolubility”.

And the “Closed Entries” value (mice; [1])?
Its value is 13 and 8 and 4 and 2 and 14 and 3 and 9.

And the “Open Entries” value (mice; [1])?
Its value is 8 and 9 and 7 and 13 and 15 and 5 and 10.

And the “Time Closed” value (mice; Totals (Trial 1 + Trial 2), individual animals, listed as 197, in s)?
The value was 299 and 472 and 180 and 74 and 440 and 274 and 198 and 409.

What about the “Time Open” value (mice; Totals (Trial 1 + Trial 2), individual animals, listed as 197, in s (unit assumed)) of the same compound?
Its value is 301 and 128 and 420 and 526 and 160 and 326 and 402 and 191.

What about the “Closed Entries AVG” value (mice; Totals, group average) of the same compound?
The value was 8.25.

What about the “Open Entries AVG” value (mice; Totals, group average) of the same compound?
Its value is 9.5.

What about the “Time Closed AVG” value (mice; Totals, group average, in s) of the same compound?
The value was 293.25.

And the “Time Open AVG” value (mice; Totals, group average, in s)?
The value was 306.75.

What about the “Closed Entries AVG” value (mice; Trial 1, group average) of the same compound?
The value was 3.75.

What about the “Open Entries AVG” value (mice; Trial 1, group average) of the same compound?
The value was 6.5.

What about the “Time Closed AVG” value (mice; Trial 1, group average, in s) of the same compound?
The value was 86.375.

And the “Time Open AVG” value (mice; Trial 1, group average, in s)?
The value was 213.625.

And the “Closed Entries” value (mice; [2])?
Its value is 3 and 4 and 1 and 8 and 0 and 7.

And the “Open Entries” value (mice; [2])?
The value was 5 and 6 and 8 and 4 and 11 and 1 and 9.

What about the “Time Closed” value (mice; Trial 1, individual animals, listed as 197, in s) of the same compound?
The value was 60 and 208 and 48 and 55 and 163 and 41 and 0 and 116.

What about the “Time Open” value (mice; Trial 1, individual animals, listed as 197, in s (unit assumed)) of the same compound?
Its value is 240 and 92 and 252 and 245 and 137 and 259 and 300 and 184.

What about the “Closed Entries AVG” value (mice; Trial 2, group average) of the same compound?
Its value is 4.5.

And the “Open Entries AVG” value (mice; Trial 2, group average)?
Its value is 3.

What about the “Time Closed AVG” value (mice; Trial 2, group average, in s) of the same compound?
The value was 206.875.

What about the “Time Open AVG” value (mice; Trial 2, group average, in s) of the same compound?
The value was 93.125.

And the “Closed Entries” value (mice; [3])?
Its value is 10 and 4 and 1 and 5 and 3 and 2.

What about the “Open Entries” value (mice; [3]) of the same compound?
The value was 3 and 1 and 2 and 7 and 4.

And the “Time Closed” value (mice; Trial 2, individual animals, listed as 197, in s)?
Its value is 239 and 264 and 132 and 19 and 277 and 233 and 198 and 293.

What about the “Time Open” value (mice; Trial 2, individual animals, listed as 197, in s (unit assumed)) of the same compound?
The value was 61 and 36 and 168 and 281 and 23 and 67 and 102 and 7.

And the “Time/Entry AVG” value (mice; elevated plus maze, group average)?
Its value is 8.7983.

What about the “Open Entries AVG” value (mice; elevated plus maze, group average of totals) of the same compound?
Its value is 14.5714.

What about the “Time Open AVG” value (mice; elevated plus maze, group average of totals, in s) of the same compound?
Its value is 96.8.

What about the Time/Entry (mice; elevated plus maze, total time open / total open entries, one value per mouse, listed as 197) of the same compound?
The Time/Entry was 3.925 and 5.671 and 12.2 and 2.561 and 11.6778 and 13.5375 and 12.015.

And the “Open Entries” value (mice; elevated plus maze, totals listed by treatment group, one value per mouse, listed as 197)?
Its value is 12 and 7 and 2 and 44 and 9 and 8 and 20.

What about the “Totals Closed Entries” value (mice; [4]) of the same compound?
The value was 22 and 15 and 11 and 38 and 10 and 3 and 12.

And the “Totals Open Entries” value (mice; [4])?
Its value is 9 and 8 and 20 and 12 and 7 and 2 and 44.

What about the “Totals Time Open” value (mice; elevated plus maze, trial 1 + trial 2, one value per mouse, listed as 197, in s) of the same compound?
Its value is 105.1 and 108.3 and 240.3 and 47.1 and 39.7 and 24.4 and 112.7.

What about the “Totals Time Closed” value (mice; elevated plus maze, trial 1 + trial 2, one value per mouse, listed as 197, in s (unit assumed)) of the same compound?
The value was 346 and 410.7 and 291.7 and 404.6 and 493.6 and 547.6 and 346.3.

And the “Trial 1 Closed Entries” value (mice; [5])?
The value was 17 and 7 and 6 and 31 and 5 and 2 and 8.

What about the “Trial 1 Open Entries” value (mice; [5]) of the same compound?
Its value is 6 and 8 and 12 and 10 and 1 and 15.

What about the “Trial 1 Time Closed” value (mice; elevated plus maze, trial 1, one value per mouse, listed as 197, in s (unit assumed)) of the same compound?
Its value is 123.7 and 123.9 and 82.1 and 166.6 and 229.4 and 269.8 and 138.

And the “Trial 2 Closed Entries” value (mice; [6])?
Its value is 5 and 8 and 7 and 1 and 4.

What about the “Trial 2 Open Entries” value (mice; [6]) of the same compound?
The value was 3 and 0 and 8 and 2 and 1 and 29.

What about the “Trial 2 Time Open” value (mice; elevated plus maze, trial 2, one value per mouse, listed as 197, in s) of the same compound?
Its value is 39.9 and 0 and 56.7 and 15.1 and 0.5 and 14.1 and 49.

And the “Trial 2 Time Closed” value (mice; elevated plus maze, trial 2, one value per mouse, listed as 197, in s (unit assumed))?
Its value is 222.3 and 286.8 and 209.6 and 238 and 264.2 and 277.8 and 208.3.

What about the “Time/Entry AVG” value (mice; group average) of the same compound?
The value was 38.3997.

What about the inhibition at 10 µM (p-ABL1) of the same compound?
Its inhibition at 10 µM is 63%.

And the remaining binding at 10 µM (p-ABL1; lower = stronger binding, read-out: p-ABL1 %Ctrl @ 10000nM (POC))?
Its remaining binding at 10 µM is 37%.

And the inhibition at 10 µM (KIT)?
Its inhibition at 10 µM is 99.7%.

What about the remaining binding at 10 µM (KIT; lower = stronger binding, read-out: KIT %Ctrl @ 10000nM (POC)) of the same compound?
Its remaining binding at 10 µM is 0.3%.
